How the values were obtained:
[1] = test system: human muscle cells and motor neurons derived from hiPSC co-cultures; assay: Contraction frequency in human muscle cell / hiPSC motor neuron co-cultures; assay type: cell-based
Protocol: The potential of said peptide Ac-SEQ ID NO: 8-NH2 to modulate the contraction frequency was evaluated in vitro using human muscle cells and motor neurons derived from hiPSC co-cultures, by means of live-imaging video of localized contractile muscle fibers recorded with an InCell 2200 automated microscope during 60 seconds, before and after treatment (after treatment, at each of the established timepoints).
Human muscle cells were cultivated at a density of 1×10^6 cells in T75 cm^2 flasks and then transferred to 96 well plates for differentiation. Motor neurons derived from hiPSC were transferred onto the 96 well plates containing the muscle cells in a differentiation medium. Co-cultures were maintained for 10 days in order to generate neurons junctions with muscle fibers. Spontaneous contractions were observed within 5 days.
Co-cultures were then treated with control medium (basal), 1 μM α-bungarotoxin, 0.5 mg/mL of acetyl hexapeptide-8 as a benchmark reference and 0.05 or 0.1 mg/mL of peptide Ac-SEQ ID NO: 8-NH2. Movies of co-cultures were recorded during 60 seconds before treatment and, after 30 minutes of incubation, movies were recorded again during 60 seconds. The culture plate was incubated again for 1 h 30 min with compounds (2 h of total incubation), and movies of co-cultures were recorded again during 60 seconds. The culture plate was incubated again for a total of 24 h with compounds and at the end of the incubation movies were recorded again during 60 seconds. Finally, compounds were washed out and a last recording after 24 h from said washed out of the compounds was done to assess an eventual recovery of muscle contractions (recovery).
Frequencies of contraction were calculated before and after each incubation. For each culture condition, 6 wells were analyzed.

SH-SY5Y cells = assay: Exocytosis levels and delay (fluorescent exocytosis reporter); assay type: cell-based, human; conditions: 0.01 mg/mL, 1 hour, PMA + ionomycin, vs non-treated cells
Protocol: The potential of said peptide Ac-SEQ ID NO: 8-NH2 to modulate the exocytosis of vesicles containing neurotransmitters from a neuroblastoma cell line was evaluated in vitro using SH-SY5Y cells, by fluorescence imaging using a Zeiss axiovert 200 inverted epifluorescence microscope with a 20× objective and a Xenon lamp.
SH-SY5Y cells (Sigma, USA) were cultured in T25 flasks in supplemented medium (DMEM/F12, Gibco, USA). Above 90% confluence, cells were trypsinized with 1 ml of 0.5% (v/v) Trypsin-EDTA. Next, 5 mL of said supplemented medium was added and cell concentration determined. Cells were seeded onto polyLysine-coated 12 mm-treated coverslips in 24 well-plates at 15×10^4 cells/well in supplemented medium (Gibco, USA) and incubated at regular conditions (37° C., 5% CO2). After 24 h cell seeding, cells were transfected with exocytosis reporter using Lipofectamine™ 3000 (Invitrogen, USA) following manufacturer's instructions. Reporter construct contained fusion protein made up of intraluminal-specific proteins and a pH-sensitive fluorescent protein.
For exocytosis monitorization, after 48 h of protein expression, cells were incubated with 0.01 mg/mL of Ac-SEQ ID NO: 8-NH2 peptide or 1 mg/mL of the benchmark acetyl hexapeptide-8 for 1 h at 37° C. and 5% CO2. Non-treated cells were used as basal control. […] Fluorescence imaging was done for the last 10 min of the stimulation protocol. Fluorescence signal of exocytosis reporter was monitored employing 483-512 nm excitation-filter and 525-530 nm emission-filter. […]
Non-treated cells were assayed in N=4 independent experiments with n=16 coverslips (483 cells measured), acetyl hexapeptide-8-treated cells in N=3 independent experiments with n=10 coverslips (328 cells measured) and Ac-SEQ ID NO: 8-NH2-treated cells in N=3 independent experiments with n=8 coverslips (240 cells measured). Cells were selected to individually monitor fluorescence intensity and time-course. Fluorescence peak evoked by ionomycin addition was used to quantify exocytosis by calculating the Area under the curve (AUC) using GraphPad software. Two parameters were defined and analyzed: • Exocytosis levels: For individual cells, total peak area was obtained from AUC analysis and was normalized by the baseline that was defined as fluorescence intensity 3-cycles before lonomycin injection. • Exocytosis delay: For individual cells, response time (min) was obtained from AUC analysis as time frame between lonomycin injection (Y) and initiation of peak (firstX).
Fluorescence values were further normalized as percentage change to non-treated cells on each experiment as: (exocytosis level of treated cells/exocytosis levels non-treated cells)×100 and (response time of treated cells/response time of non-treated cells)×100. […]

## Ac-His-Ala-Leu-Arg-Phe-Trp-NH2 [Ac-SEQ ID NO: 8-NH2]
[1]; 0.05 mg/mL, 24 h incubation
  muscle contraction frequency with regard to the basal non-treated cells: 23%
[1]; 0.05 mg/mL, after 30 min
  muscle contraction frequency with regard to the basal non-treated cells: 25%
[1]; 0.05 mg/mL, recovery 24 h after washout
  muscle contraction frequency with regard to the basal non-treated cells: 65%
[1]; 0.1 mg/mL, 24 h incubation
  muscle contraction frequency with regard to the basal non-treated cells: 10%
[1]; 0.1 mg/mL, after 30 min
  muscle contraction frequency with regard to the basal non-treated cells: 18%
[1]; 0.1 mg/mL, recovery 24 h after washout
  muscle contraction frequency with regard to the basal non-treated cells: 35%
SH-SY5Y cells
  change of exocytosis levels: −14%
  exocytosis response time delay: 24%
